Values after ≈ are worked out from the molar mass of the structure shown. Values joined by “and” are separate entries in the source; they are usually repeats but may differ in a detail not shown here. Equal values may be shown once.
Assays:
Assay in all cases: ≥ marks a high value that may be exact or a test limit, other limits are often not marked, values filed in µg/mL are converted to µM
Escherichia coli DL7 = test system: Escherichia coli DL7
[1] = test system: Staphylococcus epidermidis ATCC 12228
Bacillus subtilis PS832 = test system: Bacillus subtilis PS832
[2] = test system: Klebsiella aerogenes ATCC 13048
[3] = test system: Micrococcus luteus ATCC 9341
[4] = test system: Escherichia coli ATCC 25922
[5] = test system: Staphylococcus aureus ATCC 25923
[6] = test system: Pseudomonas aeruginosa ATCC 27853
[7] = test system: Pseudomonas aeruginosa KCTC 1637
[8] = test system: Saccharomyces cerevisiae KCTC 7296
[9] = test system: Staphylococcus aureus KCTC 1621
[10] = test system: Trichosporon beigelii KCTC 7707
[11] = test system: Candida albicans KCTC 7270
[12] = test system: Salmonella typhimurium KCTC 1926
[13] = test system: Escherichia coli KCTC 1682
[14] = test system: Bacillus subtilis KCTC 1918
[15] = test system: Staphylococcus epidermidis KCTC 1917
Escherichia coli D21 = test system: Escherichia coli D21
[16] = test system: Salmonella enterica subsp. enterica serovar Typhimurium ATCC 14028
Escherichia coli ML-35 = test system: Escherichia coli ML-35
[17] = test system: Serratia marcescens ATCC 8100
Bacillus megaterium Bm11 = test system: Bacillus megaterium Bm11
[18] = test system: Enterococcus faecium ATCC 700221
[19] = test system: Acinetobacter baumannii ATCC BAA-1605
[20] = test system: Klebsiella pneumoniae ATCC 700603
[21] = test system: Staphylococcus aureus ATCC 33591
[22] = test system: Saccharomyces cerevisiae ATCC 44774
[23] = test system: Escherichia coli ATCC 27325
[24] = test system: Pseudomonas putida ATCC 17426
[25] = test system: Staphylococcus aureus ATCC 15752
[26] = test system: Streptococcus mutans ATCC 25175
[27] = test system: Salmonella enterica subsp. enterica serovar Enteritidis ATCC 13076
[28] = test system: Bacillus subtilis ATCC 62037
[29] = test system: Candida albicans ATCC 10231
[30] = test system: Cryptococcus neoformans ATCC 34881
Escherichia coli HB101 = test system: Escherichia coli HB101
[31] = test system: Staphylococcus aureus ATCC 9144
[32] = test system: Corynebacterium glutamicum ATCC 13032

## CC(C)C[C@H](NC(=O)[C@H](CCCCN)NC(=O)[C@H](C)NC(=O)[C@H](CC(C)C)NC(=O)[C@H](CCCCN)NC(=O)[C@H](CCCCN)NC(=O)[C@H](C)NC(=O)[C@H](CC(C)C)NC(=O)[C@H](CCCCN)NC(=O)[C@H](C)NC(=O)[C@H](CC(C)C)NC(=O)[C@H](CCCCN)NC(=O)[C@H](Cc1cnc[nH]1)NC(=O)[C@H](C)NC(=O)[C@@H](N)CC(=O)O)C(=O)N[C@@H](C)C(=O)N[C@@H](CCCCN)C(N)=O [DAHKLAKLAKKLAKLAK]
Escherichia coli DL7
  MIC: 0.25 µM (≈ 0.462 µg/mL)
[1]
  MIC: 4 µM (≈ 7.39 µg/mL)
Bacillus subtilis PS832
  MIC: 0.25 µM and 0.5 µM
[2]
  MIC: ≥ 32 µM

## CC[C@H](C)[C@H](N)C(=O)N[C@@H](CC(C)C)C(=O)N1CCC[C@H]1C(=O)N[C@H](C(=O)N[C@@H](CCCCN)C(=O)N[C@H](C(=O)N1CCC[C@H]1C(=O)N[C@H](C(=O)N[C@H](C(=O)N1CCC[C@H]1C(=O)N[C@H](C(=O)N[C@@H](CCCN=C(N)N)C(=O)N[C@@H](CCCN=C(N)N)C(N)=O)[C@@H](C)CC)[C@@H](C)CC)[C@@H](C)CC)[C@@H](C)CC)[C@@H](C)CC [ILPIKIPIIPIRR]
[3]
  MIC: 25 µM (≈ 38.5 µg/mL)

## CC(C)C[C@H](NC(=O)[C@H](CCCCN)NC(=O)[C@H](C)NC(=O)[C@H](CC(C)C)NC(=O)[C@H](CCCCN)NC(=O)[C@H](CCCCN)NC(=O)[C@H](C)NC(=O)[C@H](CC(C)C)NC(=O)[C@H](CCCCN)NC(=O)[C@H](C)NC(=O)[C@H](CC(C)C)NC(=O)[C@@H](N)CCCCN)C(=O)N[C@@H](C)C(=O)N[C@@H](CCCCN)C(N)=O [KLAKLAKKLAKLAK]
Escherichia coli DL7
  MIC: 1 µM (≈ 1.52 µg/mL)
[4]
  MIC: 6 µM (≈ 9.14 µg/mL)
[1]
  MIC: 4 µM (≈ 6.09 µg/mL)
Bacillus subtilis PS832
  MIC: 0.5 µM and 0.25 µM
[2]
  MIC: ≥ 32 µM
[5]
  MIC: 6 µM (≈ 9.14 µg/mL)
[6]
  MIC: 6 µM (≈ 9.14 µg/mL)

## CC[C@H](C)[C@H](NC(=O)[C@H](CCCCN)NC(=O)[C@H](CO)NC(=O)[C@H](Cc1ccccc1)NC(=O)[C@H](CC(C)C)NC(=O)[C@H](CCCCN)NC(=O)[C@H](CCC(=O)O)NC(=O)[C@H](CC(C)C)NC(=O)[C@H](CCCN=C(N)N)NC(=O)[C@H](CCCCN)NC(=O)[C@H](Cc1ccccc1)NC(=O)[C@@H](NC(=O)[C@@H](N)CCCCN)C(C)C)C(N)=O [KVFKRLEKLFSKI]
[7]
  MIC: 1.56 µM (≈ 2.55 µg/mL)
[8]
  MIC: 8.84 µM (≈ 14.5 µg/mL)
[9]
  MIC: 6.25 µM (≈ 10.2 µg/mL)
[10]
  MIC: 1.56 µM (≈ 2.55 µg/mL)
[11]
  MIC: 25 µM (≈ 40.9 µg/mL)
[12]
  MIC: 0.78 µM (≈ 1.28 µg/mL)
[13]
  MIC: 3.12 µM (≈ 5.11 µg/mL)
[14]
  MIC: 2.21 µM (≈ 3.61 µg/mL)
[15]
  MIC: 6.25 µM (≈ 10.2 µg/mL)

## CC(C)C[C@H](NC(=O)[C@H](Cc1ccc(O)cc1)NC(=O)[C@@H]1CCCN1C(=O)[C@@H]1CCCN1C(=O)[C@H](CCCN=C(N)N)NC(=O)[C@@H]1CCCN1C(=O)[C@H](CC(N)=O)NC(=O)[C@H](CC(N)=O)NC(=O)[C@@H](N)CC(N)=O)C(=O)N1CCC[C@H]1C(=O)N[C@@H](CCCN=C(N)N)C(=O)N1CCC[C@H]1C(=O)N[C@@H](CCCN=C(N)N)C(=O)N1CCC[C@H]1C(=O)N1CCC[C@H]1C(=O)O [NNNPRPPYLPRPRPP]
Escherichia coli D21
  MIC: ≥ 64 µM
[16]
  MIC: > 64 µM
Escherichia coli ML-35
  MIC: ≥ 64 µM
[17]
  MIC: ≥ 64 µM
[1]
  MIC: > 64 µM
Bacillus megaterium Bm11
  MIC: ≥ 64 µM

## CC[C@H](C)[C@H](NC(=O)[C@H](CCCCN)NC(=O)[C@H](CCCCN)NC(=O)[C@H](Cc1ccccc1)NC(=O)[C@H](CC(C)C)NC(=O)[C@H](CCCN=C(N)N)NC(=O)[C@@H](N)CCCN=C(N)N)C(=O)N[C@@H](CC(C)C)C(=O)N[C@@H](CCCCN)C(=O)N[C@@H](Cc1ccc(O)cc1)C(=O)N[C@@H](CC(C)C)C(N)=O [RRLFKKILKYL]
[4]
  MIC: 23.3 µM (≈ 34.5 µg/mL)
[18]
  MIC: 11.5 µM (≈ 17 µg/mL)
[19]
  MIC: 3.04 µM (≈ 4.5 µg/mL)
[6]
  MIC: 11.5 µM (≈ 17 µg/mL)
[20]
  MIC: 11.5 µM (≈ 17 µg/mL)
[21]
  MIC: 23.3 µM (≈ 34.5 µg/mL)

## CC[C@H](C)[C@H](NC(=O)[C@@H]1CCCN1C(=O)[C@H](Cc1c[nH]c2ccccc12)NC(=O)[C@H](CCC(N)=O)NC(=O)[C@H](CCCN=C(N)N)NC(=O)[C@@H](NC(=O)[C@@H](NC(=O)[C@@H](N)CCCN=C(N)N)C(C)C)C(C)C)C(=O)NCC(=O)N[C@@H](CCCN=C(N)N)C(=O)N[C@H](C(=O)N[C@H](C(=O)N[C@@H](CCCN=C(N)N)C(=O)N[C@@H](CCCN=C(N)N)C(=O)N[C@H](C(=O)N[C@H](C(=O)N[C@@H](CCCN=C(N)N)C(=O)N[C@@H](CCCN=C(N)N)C(=O)N[C@H](C(=O)N[C@H](C(=O)N[C@@H](CCCN=C(N)N)C(=O)N[C@@H](Cc1ccccc1)C(=O)O)C(C)C)C(C)C)C(C)C)C(C)C)C(C)C)C(C)C [RVVRQWPIGRVVRRVVRRVVRF]
[22]
  MIC: 0.179 µM (≈ 0.5 µg/mL)
[23]
  MIC: 1.43 µM (≈ 4 µg/mL)
[24]
  MIC: 1.43 µM (≈ 4 µg/mL)
[25]
  MIC: 0.717 µM (≈ 2 µg/mL)
[26]
  MIC: 0.717 µM (≈ 2 µg/mL)
[27]
  MIC: 0.717 µM (≈ 2 µg/mL)
[28]
  MIC: 0.717 µM (≈ 2 µg/mL)
[29]
  MIC: 0.179 µM (≈ 0.5 µg/mL)

## CC(C)[C@H](NC(=O)[C@H](CCCCN)NC(=O)CNC(=O)CNC(=O)[C@H](CCC(N)=O)NC(=O)[C@H](CCCCN)NC(=O)CNC(=O)[C@H](CCCN=C(N)N)NC(=O)CNC(=O)[C@@H](N)CO)C(=O)N[C@@H](CCCN=C(N)N)C(=O)N[C@@H](C)C(=O)N[C@@H](CCCCN)C(=O)N[C@@H](C)C(=O)N[C@@H](CCCCN)C(=O)N[C@H](C(=O)N[C@@H](CCCN=C(N)N)C(=O)N[C@@H](CO)C(=O)N[C@@H](CO)C(=O)O)[C@@H](C)O [SGRGKQGGKVRAKAKTRSS]
[22]
  MIC: 8.17 µM (≈ 16 µg/mL)
[23]
  MIC: 4.08 µM (≈ 8 µg/mL)
[24]
  MIC: 8.17 µM (≈ 16 µg/mL)
[25]
  MIC: 8.17 µM (≈ 16 µg/mL)
[26]
  MIC: 16.3 µM (≈ 32 µg/mL)
[27]
  MIC: 16.3 µM (≈ 32 µg/mL)
[28]
  MIC: 2.04 µM (≈ 4 µg/mL)
[30]
  MIC: 2.04 µM (≈ 4 µg/mL)
[29]
  MIC: 16.3 µM (≈ 32 µg/mL)

## CC[C@H](C)[C@H](NC(=O)[C@@H]1CCCN1C(=O)[C@H](CCCCN)NC(=O)[C@@H]1CCCN1C(=O)[C@H](CCCN=C(N)N)NC(=O)CNC(=O)[C@@H]1CCCN1C(=O)[C@H](Cc1ccccc1)NC(=O)[C@@H]1CCCN1C(=O)[C@H](CCCN=C(N)N)NC(=O)[C@@H]1CCCN1C(=O)[C@H](CCCN=C(N)N)NC(=O)CNC(=O)[C@@H]1CCCN1C(=O)[C@@H](N)CO)C(=O)N[C@@H](Cc1ccccc1)C(=O)N[C@@H](CCCN=C(N)N)C(=O)N1CCC[C@H]1C(=O)N[C@@H](CCCN=C(N)N)C(=O)O [SPGRPRPFPGRPKPIFRPR]
Escherichia coli HB101
  MIC: ≥ 100 µM
[31]
  MIC: ≥ 100 µM
[32]
  MIC: 6.3 µM (≈ 14 µg/mL)
[4]
  MIC: > 100 µM
[6]
  MIC: > 100 µM
